Key:
[1] = target: T1, Mitogen-activated protein kinase 14 (Homo sapiens, UniProt Q16539); test: Inhibition of human recombinant full length GST-tagged p38alpha expressed in Escherichia coli preincubated for 2 hrs followed by ATP addition and measured after 1 hr by Alpha screen assay
[2] = Inhibition of LPS-stimulated TNFalpha release in human PBMC cells preincubated for 1 hr followed by LPS stimulation and measured after 18 hrs; assay type: functional, cell-based
[3] = target: T1, Mitogen-activated protein kinase 14; test: Displacement of SKF-86002 from human inactivated p38alpha assessed as dissociation half life incubated for 2 hrs by fluorescence based analysis

T1 sequence (Q16539 whole entry): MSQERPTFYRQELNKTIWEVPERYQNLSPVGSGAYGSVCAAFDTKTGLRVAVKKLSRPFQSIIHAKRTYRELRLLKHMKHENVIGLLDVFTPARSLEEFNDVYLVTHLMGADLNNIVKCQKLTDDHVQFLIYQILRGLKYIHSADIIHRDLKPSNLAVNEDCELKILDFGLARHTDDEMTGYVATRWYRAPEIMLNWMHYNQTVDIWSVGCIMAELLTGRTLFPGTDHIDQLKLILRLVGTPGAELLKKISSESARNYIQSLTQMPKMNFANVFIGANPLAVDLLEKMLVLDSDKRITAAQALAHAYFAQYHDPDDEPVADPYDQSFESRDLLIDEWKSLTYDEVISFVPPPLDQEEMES

Row | SMILES | IC50 [1] [nM] | IC50 [2] [nM] | T1/2 [3] [h]
1 | C[C@H]1CCCCN1c1nnc2ccc(O[C@@H]3CC[C@H](NC(=O)Nc4cc(C(C)(C)C)nn4-c4cccc(OCCN(C)C)n4)c4ccccc43)cn12 | 2 | 5.8 | 2.9
2 | C[C@H]1CCCCN1c1nnc2ccc(O[C@@H]3CC[C@H](NC(=O)Nc4cc(C(C)(C)C)nn4-c4cccc(OCCN5CCN(C)CC5)c4)c4ccccc43)cn12 | 0.3 | 2.1 | 5.1
3 | Cc1ccc(-n2nc(C(C)(C)C)cc2NC(=O)N[C@H]2CC[C@@H](Oc3ccc4nnc(C5CCCCC5)n4c3)c3ccccc32)cc1 | 0.3 | 0.4 | > 16
4 | CC(C)(C)c1cc(NC(=O)N[C@H]2CC[C@@H](Oc3ccc4nnc(N5CCC(O)CC5)n4c3)c3ccccc32)n(-c2ccc(CO)cc2)n1 | 0.4 | 14 | > 16
5 | C[C@H]1CCCCC1c1nnc2ccc(O[C@@H]3CC[C@H](NC(=O)Nc4cc(C(C)(C)C)nn4-c4cccc(OCCN5CCOCC5)c4)c4ccccc43)cn12 (stereo not given in full) | 0.5 | 0.8 | > 16
6 | CC(C)(C)c1cc(NC(=O)N[C@H]2CC[C@@H](Oc3ccc4nnc(N5CCCCC5)n4c3)c3ccccc32)n(-c2cccc(CN3CCCCC3)c2)n1 | 1.3 | 1.9 | 1.2
7 | CC(C)(C)c1cc(NC(=O)N[C@H]2CC[C@@H](Oc3ccc4nnc(N5CCCCC5)n4c3)c3ccccc32)n(-c2cccc(CN3CCNCC3)c2)n1 | 0.8 | 1.1 | 5
8 | C[C@H]1CCCCN1c1nnc2ccc(O[C@@H]3CC[C@H](NC(=O)Nc4cc(C(C)(C)C)nn4-c4cnn(CCN5CCN(C)CC5)c4)c4ccccc43)cn12 | 0.3 | 3.2 | > 16
9 | Cc1ccc(-n2nc(C(C)(C)C)cc2NC(=O)N[C@H]2CC[C@@H](Oc3ccc4nnc(N5CCCC5)n4c3)c3ccccc32)cc1 | 0.5 | 0.3 | > 16
10 | CC(C)c1nnc2ccc(O[C@@H]3CC[C@H](NC(=O)Nc4cc(C(C)(C)C)nn4C)c4ccccc43)cn12 | 0.3 | 3.9 | 0.07
11 | C[C@H]1CCCCC1c1nnc2ccc(O[C@@H]3CC[C@H](NC(=O)Nc4cc(C(C)(C)C)nn4-c4cccc(CN5CCN(C)CC5)c4)c4ccccc43)cn12 (stereo not given in full) | 0.3 | 1 | > 16
12 | Cc1ccc(-n2nc(C(C)(C)C)cc2NC(=O)N[C@H]2CC[C@@H](Oc3ccc4nnc(N5CCC(O)CC5)n4c3)c3ccccc32)cc1 | 0.5 | 2.1 | > 16
13 | CN(C)CCOc1cccc(-n2nc(C(C)(C)C)cc2NC(=O)N[C@H]2CC[C@@H](Oc3ccc4nnc(N5CCCCC5)n4c3)c3ccccc32)c1 | 0.6 | 1.3 | 3.6
14 | CC(C)c1nnc2ccc(O[C@@H]3CC[C@H](NC(=O)Nc4cc(C(C)(C)C)nn4-c4cccc(OCCO)c4)c4ccccc43)cn12 | 0.4 | 1 | 1.9
15 | C[C@@H]1CCC[C@H](C)N1c1nnc2ccc(O[C@@H]3CC[C@H](NC(=O)Nc4cc(C(C)(C)C)nn4-c4cccc(OCCN(C)C)c4)c4ccccc43)cn12 | 0.3 | 1 | > 16
16 | Cc1ccc(-n2nc(C(C)(C)C)cc2NC(=O)N[C@H]2CC[C@@H](Oc3ccc4nnc(N5CCN(C)CC5)n4c3)c3ccccc32)cc1 | 1 | 2.5 | 9
17 | C[C@H]1CCCCN1c1nnc2ccc(O[C@@H]3CC[C@H](NC(=O)Nc4cc(C(C)(C)C)nn4-c4cnn(CCN5CCC(O)CC5)c4)c4ccccc43)cn12 | 0.4 | 5.1 | > 16
18 | C[C@H]1CCCCN1c1nnc2ccc(O[C@@H]3CC[C@H](NC(=O)Nc4cc(C(C)(C)C)nn4-c4cnn(CCN5CCOCC5)c4)c4ccccc43)cn12 | 0.5 | 1.8 | > 16
19 | C[C@H]1CCCCN1c1nnc2ccc(O[C@@H]3CC[C@H](NC(=O)Nc4cc(C(C)(C)C)nn4-c4cnn(CCN5CCCOCC5)c4)c4ccccc43)cn12 | 0.4 | 0.8 | > 16
20 | CC(C)(C)c1cc(NC(=O)N[C@H]2CC[C@@H](Oc3ccc4nnc(N5CCCCC5)n4c3)c3ccccc32)n(-c2ccc(Cl)c(O)c2)n1 | 0.5 | 0.2 | > 16
21 | Cc1ccc(-n2nc(C(C)(C)C)cc2NC(=O)N[C@H]2CC[C@H](Oc3ccc4nnc(C(C)C)n4c3)CC2)cc1 | 6.1 | 36 | 0.09
22 | CC(C)(C)c1cc(NC(=O)N[C@H]2CC[C@@H](Oc3ccc4nnc(N5CCCCC5)n4c3)c3ccccc32)n(-c2cccc(CO)c2)n1 | 0.6 | 0.2 | > 16
23 | Cc1ccc(-n2nc(C(C)(C)C)cc2NC(=O)N[C@H]2CC[C@@H](Oc3ccc4nnc(N5CCOCC5)n4c3)c3ccccc32)cc1 | 1.1 | 0.9 | 5.8

More lines, in order of falling IC50 [1], values ahead:

Row | IC50 [1] [nM] | IC50 [2] [nM] | T1/2 [3] [h] | SMILES
24 | 0.3 | 1.2 | 1.1 | C[C@H]1CCCCN1c1nnc2ccc(O[C@@H]3CC[C@H](NC(=O)Nc4cc(C(C)(C)C)nn4-c4cnnc(OCCN(C)C)c4)c4ccccc43)cn12
25 | 0.2 | 2.5 | 9 | CCN(C)CCn1cc(-n2nc(C(C)(C)C)cc2NC(=O)N[C@H]2CC[C@@H](Oc3ccc4nnc(N5CCCC[C@@H]5C)n4c3)c3ccccc32)cn1
26 | 0.2 | 1.6 | 5.4 | C[C@@H]1CCCCN1c1nnc2ccc(O[C@@H]3CC[C@H](NC(=O)Nc4cc(C(C)(C)C)nn4-c4cccc(OCCN(C)C)c4)c4ccccc43)cn12
27 | 0.2 | 2.7 | 1.9 | C[C@H]1CCCCN1c1nnc2ccc(O[C@@H]3CC[C@H](NC(=O)Nc4cc(C(C)(C)C)nn4-c4ccn(CCN(C)C)n4)c4ccccc43)cn12
28 | 0.2 | 0.9 | > 16 | COCCN(C)CCn1cc(-n2nc(C(C)(C)C)cc2NC(=O)N[C@H]2CC[C@@H](Oc3ccc4nnc(N5CCCC[C@@H]5C)n4c3)c3ccccc32)cn1
29 | 0.2 | 1.4 | 3.5 | CN(C)CCOc1cc(-n2nc(C(C)(C)C)cc2NC(=O)N[C@H]2CC[C@@H](Oc3ccc4nnc(N5CCCCC5)n4c3)c3ccccc32)ccc1Cl
30 | 0.1 | 0.3 | > 16 | Cc1ccc(-n2nc(C(C)(C)C)cc2NC(=O)N[C@H]2CC[C@@H](Oc3ccc4nnc(C5CCCC5)n4c3)c3ccccc32)cc1
31 | 0.1 | 0.1 | > 16 | Cc1ccc(-n2nc(C(C)(C)C)cc2NC(=O)N[C@H]2CC[C@H](Oc3ccc4nnc(C(C)C)n4c3)c3ccccc32)cc1
32 | 0.08 | 1.1 | 1.31 | CC(C)c1nnc2ccc(O[C@@H]3CC[C@H](NC(=O)Nc4cc(C(C)(C)C)nn4-c4ccc(O)c(Cl)c4)c4ccccc43)cn12
33 | 0.06 | 0.5 | 1.74 | CC(C)c1nnc2ccc(O[C@@H]3CC[C@H](NC(=O)Nc4cc(C(C)(C)C)nn4-c4ccccc4)c4ccccc43)cn12
34 | 0.05 | 0.7 | 0.89 | CC(C)c1nnc2ccc(O[C@@H]3CC[C@H](NC(=O)Nc4cc(C(C)(C)C)nn4-c4ccc(Cl)c(O)c4)c4ccccc43)cn12
35 | 0.03 | 1 | 5 | C[C@H]1CCCCN1c1nnc2ccc(O[C@@H]3CC[C@H](NC(=O)Nc4cc(C(C)(C)C)nn4-c4cncc(OCCN(C)C)c4)c4ccccc43)cn12

From ChEMBL document CHEMBL5154908, “Design, Synthesis, and Biological Characterization of Inhaled p38α/β MAPK Inhibitors for the Treatment of Lung Inflammatory Diseases” (J Med Chem, 2022)
